Drawing on patent US5461049A, “Amide tetrazole ACAT inhibitors” (Warner-Lambert Company, priority 1994, dated 1995), this text covers IC50 and change in vivo for 25 compounds.

In assay [1] the target is T1, acyl-CoA: cholesterol acyltransferase (ACAT) (Rattus norvegicus, UniProt Q7TQM4).
T1 construct: tissue preparation containing rat liver microsomes; from tissue; host or cells: rat liver microsomes
T1 sequence (Q7TQM4 1-524): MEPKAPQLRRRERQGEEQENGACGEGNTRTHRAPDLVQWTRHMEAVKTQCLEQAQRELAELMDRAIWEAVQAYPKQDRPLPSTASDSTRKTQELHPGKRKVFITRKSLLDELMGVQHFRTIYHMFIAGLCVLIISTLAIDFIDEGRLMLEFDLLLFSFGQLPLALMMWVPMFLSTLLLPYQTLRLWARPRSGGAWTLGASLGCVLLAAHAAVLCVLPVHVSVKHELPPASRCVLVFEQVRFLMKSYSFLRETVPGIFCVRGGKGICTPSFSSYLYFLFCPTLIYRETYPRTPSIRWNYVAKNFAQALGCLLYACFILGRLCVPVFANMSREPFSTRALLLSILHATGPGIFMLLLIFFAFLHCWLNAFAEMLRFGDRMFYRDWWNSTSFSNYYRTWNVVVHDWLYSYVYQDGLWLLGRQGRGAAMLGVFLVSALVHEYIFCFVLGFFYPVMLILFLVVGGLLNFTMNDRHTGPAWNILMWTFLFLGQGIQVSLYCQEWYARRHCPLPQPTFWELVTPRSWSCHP
Briefly: ACAT inhibition in vitro (LAI): radiolabeled cholesterol oleate formed from radiolabeled oleic acid in rat liver microsomes. It is filed as biochemical. To be noted: concentration required to inhibit the activity of the enzyme by 50%. Here is the method:
The ability of representative compounds of the present invention to inhibit ACAT was measured using an in vitro test more fully described in F. J. Field and R. G. Salone, Biochemica et Biophysica Acta, 712:557-570 (1982). The test assesses the ability of a test compound to inhibit the acylation of cholesterol by oleic acid by measuring the amount of radiolabeled cholesterol oleate formed from radiolabeled oleic acid in a tissue preparation containing rat liver microsomes (designated LAI).
In general terms: Liver microsomes are a subcellular fraction often used to study metabolism.

Assay [2] can be described thus: APCC in vivo screen: change in total cholesterol in rats on high fat, high cholesterol diet. Also on record: species or system male Sprague-Dawley rats. The settings on record: Rattus norvegicus, po, 16 h; 30 mg/kg by gavage, single dose at 4 PM, sacrificed at 8 AM; 5.5% peanut oil, 1.5% cholesterol, 0.5% cholic acid diet; vs control animals given vehicle and diet only; read-out: APCC (% change in TC). An excerpt: In one in vivo screen designated APCC, male Sprague-Dawley rats (200-225 g body weight) were randomly divided into treatment groups and dosed at 4 PM with either vehicle (CMC/Tween) or suspensions of invention compounds in vehicle. The normal chow diet was then replaced with a high fat, high cholesterol diet (5.5% peanut oil, 1.5% cholesterol, and 0.5% cholic acid). The rats consumed this diet ad libitum during the night and were sacrificed at 8 AM to obtain blood samples for cholesterol analysis using standard procedures. Statistical differences between mean cholesterol values for the same vehicle were determined using analysis of variance followed by Fisher's least significant test. The results of this trial for representative compounds of the present invention also appear in Table I as the percent change in total cholesterol (%TC) from control animals given vehicle and diet only. All compounds in the APCC test reported in Table 1 were administered by garage at 30 mg/kg.

The structures appear in SMILES notation.

The IC50 is the concentration at which inhibition is half-maximal. The compound `CCCCCCCCCCCCn1nnc(C(C(=O)Nc2c(C(C)C)cccc2C(C)C)N2CCSCC2)n1` (racemic) [Example 1, (±)-N-(2,6-diisopropylphenyl) -2-(2-dodecyl-2H-tetrazol-5-yl) -2-thiomorpholin-4-yl-acetamide] came in with a half-inhibitory concentration (IC50) in assay [1] of 12 nM. The change in vivo at 30 mg/kg in assay [2] is -56%.

`CCCCCCCCCCCCn1nnc(C(C(=O)Nc2c(C(C)C)cccc2C(C)C)N2CCOCC2)n1` (racemic) [Example 2, (±)-N-(2,6-Diisopropylphenyl)-2-(2-dodecyl-2H-tetrazol-5-yl)-2-morpholino-4-yl-acetamide]: the half-maximal inhibitory concentration (IC50) in assay [1] was 18 nM. In assay [2], the change in vivo at 30 mg/kg is -57%. Regarding `CCCCCCCCCCCCn1nnc(C(C(=O)Nc2c(C(C)C)cccc2C(C)C)N2CCCCC2)n1` (racemic) [Example 3, (±)-N-(2,6-Diisopropylphenyl)-2-(2-dodecyl-2H-tetrazol-5-yl)-2-piperidin-1-yl-acetamide], in assay [1], the IC50 is 15 nM. In addition, the change in vivo at 30 mg/kg in assay [2] was -47%.

In turn, `CCCCCCCCCCCCn1nnc(C(C(=O)Nc2c(C(C)C)cccc2C(C)C)N2CCCC2)n1` (racemic) [Example 4, (±) -N-(2,6-Diisopropylphenyl)-2-(2-dodecyl-2H-tetrazol-5-yl) -2-pyrrolidinyl-1-yl-acetamide] came in with an IC50 in assay [1] of 9 nM. Also, the change in vivo at 30 mg/kg in assay [2] was -59%. In the case of `CCCCCCCCCCCCn1nnc(C(C(=O)Nc2c(C(C)C)cccc2C(C)C)n2ccnc2)n1` (racemic) [Example 5, (±)-N-(2,6-Diisopropylphenyl)-2-(2-dodecyl-2H-tetrazol-5-yl) -2-imidazol-1-yl-acetamide], in assay [1], half-maximal inhibition (IC50) was put at 215 nM. Also, the change in vivo at 30 mg/kg in assay [2] is -46%.

In assay [1], `CCCCCCCCCCCCn1nnc(C(C(=O)Nc2c(C(C)C)cccc2C(C)C)N2CCN(C)CC2)n1` (racemic) [Example 6, (±)-N-(2,6-Diisopropylphenyl)-2-(2-dodecyl-2-tetrazol-5-yl)-2-(4-methyl-piperazin-1-yl)-acetamide] came in with a half-inhibitory concentration (IC50) of 86 nM. In assay [2], the change in vivo at 30 mg/kg is -51%.

The compound `CCCCCCCCCCCCn1nnc(C(C(=O)Nc2c(C(C)C)cccc2C(C)C)N(CC)CC)n1` (racemic) [Example 7, (±)-2-Diethylamino-N-(2,6-diisopropylphenyl) -2-(2-dodecyl-2H-tetrazol-5-yl)-acetamide] yielded an IC50 in assay [1] of 32 nM. In addition, the change in vivo at 30 mg/kg in assay [2] was -28%.

Consider `CCCCCCCCCCCCn1nnc(C(C(=O)Nc2c(C(C)C)cccc2C(C)C)N(CCO)CCO)n1` (racemic) [Example 8, (±)-2-[Bis-(2-hydroxyethyl)-amino]-N-(2,6-diisopropylphenyl) -2-(2-dodecyl-2H-tetrazol-5-yl)-acetamide], for which, in assay [1], the IC50 was determined as 390 nM. Besides, the change in vivo at 30 mg/kg in assay [2] is -11%. In assay [1], `CCCCCCCCCCCCn1nnc(C(C(=O)Nc2c(C(C)C)cccc2C(C)C)N(C)C)n1` (racemic) [Example 9, (±)-N-(2,6-Diisopropylphenyl)-2-dimethylamino-(2-dodecyl-2H-tetrazol-5-yl)-acetamide] came in with a 50% inhibitory concentration (IC50) of 40 nM. Also, the change in vivo at 30 mg/kg in assay [2] was -40%.

`CCCCCCCCCCCCn1nnc(C(N)C(=O)Nc2c(C(C)C)cccc2C(C)C)n1` (racemic) [Example 10, (±)-2-Amino-N-(2,6-diisopropylphenyl)-2-(2-dodecyl-2H-tetrazol-5-yl)-acetamide]: in assay [1], the IC50 came out at 94 nM. Besides, in assay [2], the change in vivo at 30 mg/kg was -51%. As to `CCCCCCCCCCCCn1nnc(C(C(=O)Nc2c(OC)cc(OC)cc2OC)N2CCCC2)n1` (racemic) [Example 17, (±)-N-(2,4,6-trimethoxyphenyl) -2-(2-dodecyl-2H-tetrazol-5-yl)-2-pyrrolidin-1-yl-acetamide], the IC50 in assay [1] worked out at 40 nM. Also, the change in vivo at 30 mg/kg in assay [2] was -67%. The corresponding values for `CCCCCCCCCCCCn1nnc(C(C(=O)Nc2c(C(C)C)cc(C(C)C)cc2C(C)C)N2CCCC2)n1` (racemic) [Example 18, (±)-N-2,4,6-triisopropylphenyl-2-(2-dodecyl-2H-tetrazol-5-yl)-2-pyrrolidin-1-yl-acetamide] are 222 nM and -20%. In assay [1], `CCCCCCCCCCCCn1nnc(C(NC(C)=O)C(=O)Nc2c(C(C)C)cccc2C(C)C)n1` (racemic) [Example 32, (±)-N-(2,6-diisopropylphenyl)-2-(2-dodecyl-2H-tetrazol-5-yl)-2-acetylamino-acetamide] registered a concentration for half-maximal inhibition (IC50) above 1000 nM. Also, the change in vivo at 30 mg/kg in assay [2] is -9%. As for `CCCCCCCCCCCCn1nnc(C(NC2CCCCC2)C(=O)Nc2c(C(C)C)cccc2C(C)C)n1` (racemic) [Example 36, (±)-N-(2,6-diisopropylphenyl)-2-(2-dodecyl-2H-tetrazol-5-yl)-2-cyclohexylamino-acetamide], in assay [1], half-maximal inhibition (IC50) required 212 nM. As for `CCCCCCCCCCCCn1nnc(C(=O)C(=O)Nc2c(C(C)C)cccc2C(C)C)n1` [Example 11, N-(2,6-diisopropylphenyl)-2-(2-dodecyl-2H-tetrazol-5-yl)-2-oxo-acetamide], the IC50 in assay [1] is 135 nM. Further, the change in vivo at 30 mg/kg in assay [2] is -50%. `CCCCCCCCCCCCn1nnc(C(=NO)C(=O)Nc2c(C(C)C)cccc2C(C)C)n1` [Example 12, N-(2,6-diisopropylphenyl)-2-(2-dodecyl-2H-tetrazol-5-yl)-2-hydroxyimino-acetamide]: the IC50 in assay [1] is 29 nM. This lies in the double-digit nanomolar range. With `CCCCCCCCCCCCn1nnc(/C(=N\OC)C(=O)Nc2c(C(C)C)cccc2C(C)C)n1` [Example 13, E-N-(2,6-Diisopropylphenyl)-2-(2-dodecyl-2H-tetrazol-5-yl)-2-methoxyimino-acetamide], in assay [1], the concentration for half-maximal inhibition (IC50) stood at 2 nM. In addition, in assay [2], the change in vivo at 30 mg/kg was -43%. In turn, `CCCCCCCCCCCCn1nnc(/C(=N/OC)C(=O)Nc2c(C(C)C)cccc2C(C)C)n1` [Example 14, Z-N-(2,6-diisopropylphenyl) -2-(2-dodecyl-2H-tetrazol-5-yl)-2-methoxyiminoacetamide] yielded a 50% inhibitory concentration (IC50) in assay [1] of 40 nM. Besides, in assay [2], the change in vivo at 30 mg/kg was -19%. Consider `CCCCCCCCCCCCn1nnc(/C(=N\OC)C(=O)Nc2c(OC)cc(OC)cc2OC)n1` [Example 15, E-2-(2-Dodecyl-2H-tetrazol-5-yl)-2-methoxyimino -N-(2,4,6-trimethoxyphenyl)-acetamide], for which half-maximal inhibition in assay [1] (IC50) required 28 nM. In addition, the change in vivo at 30 mg/kg in assay [2] was -70%. The corresponding values for `CCCCCCCCCCC(C)n1nnc(/C(=N\OC)C(=O)Nc2c(C(C)C)cccc2C(C)C)n1` (centres unmarked) [Example 16, E-N-(2,6-Diisopropylphenyl)-2-(2-(1-methylundecyl) -2H-tetrazol-5-yl)-2-methoxyimino-acetamide] are 3 nM and -67%. `CCCCCCCCCCCCn1nnc(/C(=N/OCC)C(=O)Nc2c(C(C)C)cccc2C(C)C)n1` [Example 23, Z-N-(2,6-diisopropylphenyl) -2-(2-dodecyl-2H-tetrazol-5-yl)-2-ethoxyimino-acetamide]: the concentration for half-maximal inhibition (IC50) in assay [1] was 2 nM. For the same compound, the change in vivo at 30 mg/kg in assay [2] is -74%. The corresponding values for `CCCCCCCCCCCCn1nnc(/C(=N\OCC)C(=O)Nc2c(C(C)C)cccc2C(C)C)n1` [Example 24, E-isomer of N-(2,6-diisopropylphenyl)-2-(2-dodecyl-2H-tetrazol-5-yl)-2-ethoxyimino-acetamide] are 49 nM and -31%. Consider `CCCCCCCCCCCCn1nnc(C(=NN)C(=O)Nc2c(C(C)C)cccc2C(C)C)n1` [Example 27, N-(2,6-diisopropylphenyl)-2-(2 dodecyl-2H-tetrazol-5-yl)-2-hydrazono-acetamide], for which, in assay [1], the IC50 came out at 510 nM.

Take `CCCCCCCCCCCCn1nnc(C(=NNc2ccccc2)C(=O)Nc2c(C(C)C)cccc2C(C)C)n1` [Example 28, N-(2,6-diisopropylphenyl)-2-(2-dodecyl-2H-tetrazol-5-yl)-2-phenylhydrazono-acetamide]: in assay [1], the half-maximal inhibitory concentration (IC50) was 150 nM. For the same compound, the change in vivo at 30 mg/kg in assay [2] is -18%. Take `CCCCCCCCCCCCn1nnc(C(=NN(C)C)C(=O)Nc2c(C(C)C)cccc2C(C)C)n1` [Example 29, N-(2,6-diisopropylphenyl)-2-(2-dodecyl-2H-tetrazol-5-yl)-2-dimethylhydrazono-acetamide]: in assay [1], the IC50 was found to be 43 nM. Further, the change in vivo at 30 mg/kg in assay [2] is -70%.
